In patent publication US20110021507A1, “INHIBITING ANTIPSYCHOTIC-INDUCED WEIGHT GAIN” (Theracos, Inc., priority 2009, published 2011):

Tests used:
[1] = tested on: cardiac receptors; details: cited from earlier work
[2] = tested on: cortical receptors; details: cited from earlier work
[3] = tested on: muscarinic receptor; details: cited from earlier work
[4] = Olanzapine-induced weight gain in a rat model (Alzet minipumps); assay type: in vivo, Wistar-Han female rats; details: OLZ 10 mg/kg/day; for effect on weight gain (main effect of Treatment, 2-way repeated measures ANOVA): OLZ vs VEH p=0.042, OLZ vs OLZ+TZP p=0.01, TZP 5 mg/kg/day
Method: Arrow indicates pump implantation and solid bar over the x-axis indicates the drug treatment interval. Telenzepine was administered at a dose of 5 mg/kg/day. […] The solid line indicates the effect of OLZ administered alone (OLZ-Induced weight gain), while dashed lines indicate groups receiving TZP, either alone (dashed line) or co-administered with the 10.0 mg/kg OLZ dose (dot-dash-dot line). The dotted line indicates the weight gain in animals receiving only Vehicle treatments. […] The rats were divided into the following four groups: Group 1—Control: Vehicle (NMP:DMSO:PEG) alone Group 2—OLZ (10 mg/kg/day) alone Group 3—TZP (5 mg/kg/day) alone Group 4—OLZ (10 mg/kg/day)+TZP (5 mg/kg/day) […] Two 2-way repeated measures ANOVAs were run: 1) Comparing No Treatment (VEH) to OLZ alone (addressing the question of whether or not OLZ induced weight gain), 2) Comparing OLZ alone to OLZ+TZP (addressing the question of whether or not TZP co-administration prevented OLZ-Induced weight gain).

[5] = patients being administered olanzapine; cited from earlier work
[6] = at 90 degrees; cited from earlier work

Compound: Cc1scc2c1N(C(=O)CN1CCN(C)CC1)c1ccccc1NC2=O [(+) form of telenzepine]
- factor by which the (+) form is more potent than the (−) form [1]: 50
- factor by which the (+) form is more effective than the (−) isomer [2]: 400
- antimuscarinic activity [3]: potent antimuscarinic activity

Compound: Cc1scc2c1N(C(=O)CN1CCN(C)CC1)c1ccccc1NC2=O [(−) form]
- antimuscarinic activity [3]: considerably less active

Compound: Cc1cc2c(s1)Nc1ccccc1N=C2N1CCN(C)CC1 [Olanzapine, 2-methyl-4-(4-methyl-1-piperazinyl)-10H-thieno[2,3-b][1,5]benzodiazepine]
- effect on weight gain (main effect of Treatment, 2-way repeated measures ANOVA) [4]: induced a significant amount of weight gain over No Treatment controls
- difference in weight gain versus Vehicle treated rats ([4]; Treatment Day 12 (peak OLZ-induced gain), TZP 5 mg/kg/day by minipump): 6.2%
- patients experiencing bodyweight gain of greater than 7% [5]: ≤ 30%

Compound: Cc1scc2c1N(C(=O)CN1CCN(C)CC1)c1ccccc1NC2=O [Telenzepine, 4,9-Dihydro-3-methyl-4-[(4-methyl-1-piperazinyl)acetyl]-10H-thieno[3,4-b][1,5]benzodiazepin-10-one]
- effect on weight gain (main effect of Treatment, 2-way repeated measures ANOVA) [4]: significant reduction in OLZ-induced weight gain
- half time of interconversion of the two forms [6]: approximately 200 hours
